Experimental findings from US11479533B2, “Inhibitors of Rho associated coiled-coil containing protein kinase” (KADMON CORPORATION, LLC, priority 2017, dated 2022) are described below.

A word on the IC50: it is the concentration that gives 50% inhibition.

Test [1] relates to ppMlc (T18/S19) levels in A7R5 cells. In words: A7R5 in-cell ELISA assay (ppMlc). Type of test: cell-based, rat. The settings on record: Rattus norvegicus, A7R5, A7R5 cells, Table 2; read-out: pMLC IC50 (nM) A7R5. The procedure:
Determination of compounds ROCK inhibitory activity in A7R5 cells: rat aortic smooth muscle cell line A7R5 cells were maintained and treated in DMEM medium with 10% of fetal bovine serum. Cells were seeded with density of 5,000 cells/well in 96-well plates for 24 hours and subsequently treated 90 min with testing compounds. Cells were then fixed and processed according to the In-Cell ELISA Colorimetric Detection Kit manual (Thermo Scientific).
A7R5 cells were treated with 9 points 2 fold serial dilution of compounds and ppMlc (T18/S19) levels were determined in order to calculate the cellular IC50s of the compounds.
An A7R5 in-cell ELISA assay was performed to determine ROCK inhibition of test articles. A7R5 cells were treated with 9 points 2-fold serial dilution of compounds and ppMlc (T18/S19) levels were determined to calculate cellular IC50 values of the compounds. […] A7R5 cells were treated with 9 points 2-fold serial dilution of compounds and ppMlc (T18/S19) levels were determined to calculate cellular IC50 values of the compounds using the nonlinear regression curve fit function of the GraphPad Prism software.
A general note: ELISA stands for enzyme-linked immunosorbent assay.

The test system of test [2] is ACTA2-promoter-driven-luciferase in NIH3T3 cells. In words: NIH3T3 Acta2-promoter driven-luciferase assay. The test is classed as cell-based. Conditions: Mus musculus, plus TGFβ1, 24 hr, read-out: NIH3T3, Acta2-luc, IC50. The procedure:
NIH3T3 cells Acta2-promoter driven-luciferase assay: A NIH3T3 cell line stably expressing a luciferase reporter driven by the human ACTA2 gene promoter (−1000-1 bp) was established (NIH3T3-Acta2-luciferase). The cells were plated to confluence and treated with the test compounds plus TGFβ1 for 24 hr. Cells were then lysed and luciferase activity was measured using the LightSwitch luciferase kit from Active Motif.
ROCK inhibitors can be effectively rank ordered by ACTA2-promoter-driven-luciferase reporter cell assay. NIH3T3 cells stably expressing ACTA2-promoter-driven-luciferase were applied to measure ROCK compounds functional IC50's in cells. Cells were plated in 96 well plates to confluence and treated with 9 points serial dilution of compounds in combination with TGFβ1 for 24 hr. Luciferase activities were measured and compound's IC50's were calculated using the nonlinear regression curve fit function of the GraphPad Prism software. Compounds of the invention gave in cell IC50's under 200 nM, see FIG. 1c.

Test [3] deals with recombinant ROCK2 (amino acids 1-552) (Homo sapiens (Human), UniProt O75116). In words: Z'-lyte kinase assay, ROCK2. The test is classed as biochemical. The method, then:
Determination of compounds ROCK inhibitory activity in vitro (Z'lyte assay): recombinant ROCK1 (amino acids 1-535) and ROCK2 (amino acids 1-552) proteins were purchased from ThermoFisher Scientific. Compounds activities were measured by Z'-lyte kinase kit (ThermoFisher Scientific) and IC50s were calculated.
Compounds activities were measured by Z'-lyte kinase kit (ThermoFisher Scientific). […] IC50s were calculated using the GraphPad Prism software with kinase activities data that were collected from 9 points serial dilution of compounds treatment. The ROCK inhibition in A7R5 cells and NIH3T3 (Acta2-Luc) cells was performed as described above.
The percent inhibition rate was calculated by normalizing the kinase activity value obtained with compound treatment against DMSO control value and then applied to the equation, […]. IC50's were calculated using the nonlinear regression curve fit function of the GraphPad Prism software with kinase activities data measured with 9 points 2-fold serial dilution of compounds treatment.

Chain of recombinant ROCK2 (amino acids 1-552) (O75116 1-552): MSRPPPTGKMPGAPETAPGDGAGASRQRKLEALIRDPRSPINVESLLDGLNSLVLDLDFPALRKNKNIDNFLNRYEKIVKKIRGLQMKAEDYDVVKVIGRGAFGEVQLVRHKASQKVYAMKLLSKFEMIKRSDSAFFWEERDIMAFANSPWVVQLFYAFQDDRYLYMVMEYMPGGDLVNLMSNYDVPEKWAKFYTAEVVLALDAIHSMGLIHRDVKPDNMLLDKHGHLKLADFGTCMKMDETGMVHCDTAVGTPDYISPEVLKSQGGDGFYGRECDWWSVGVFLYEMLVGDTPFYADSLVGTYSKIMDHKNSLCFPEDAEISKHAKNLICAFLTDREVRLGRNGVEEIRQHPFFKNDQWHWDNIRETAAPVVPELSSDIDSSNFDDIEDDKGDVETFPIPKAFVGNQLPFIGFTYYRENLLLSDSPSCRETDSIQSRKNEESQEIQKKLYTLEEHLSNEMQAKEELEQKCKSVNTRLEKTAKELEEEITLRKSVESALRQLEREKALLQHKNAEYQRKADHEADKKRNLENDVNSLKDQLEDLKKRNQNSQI

Regarding `CN[C@@H](C(=O)Nc1ccc(-c2cn[nH]c2)cc1)c1cccc(OC)c1` [Example 3, (R)—N-(4-(1H-pyrazol-4-yl)phenyl)-2-(3-methoxyphenyl)-2-(methylamino)acetamide], the figures for the half-maximal inhibitory concentration (IC50) in test [1], in test [2] and in test [3] were 222 nM, 157 nM and 12 nM, respectively.

On to `CN[C@H](C(=O)Nc1ccc(-c2cn[nH]c2)cc1)c1cccc(OC)c1` [Example 4, (S)—N-(4-(1H-pyrazol-4-yl)phenyl)-2-(3-methoxyphenyl)-2-(methylamino)acetamide], for which the IC50 was 108 nM in test [1], 110 nM in test [2] and 3 nM in test [3].

For the compound `CNC(C(=O)Nc1ccc(-c2cn[nH]c2)cc1)c1ccc(OC)cc1` (stereo not drawn) [Example 9, N-(4-(1H-pyrazol-4-yl)phenyl)-2-(4-methoxyphenyl)-2-(methylamino)acetamide], the 50% inhibitory concentration (IC50) was 355 nM in test [1] and 15.4 nM in test [3].

As for `CCNC(C(=O)Nc1ccc(-c2cn[nH]c2)cc1)c1ccc(OC)cc1` (stereo not drawn) [Example 10, N-(4-(1H-pyrazol-4-yl)phenyl)-2-(ethylamino)-2-(4-methoxyphenyl)acetamide], the IC50 worked out at 255 nM in test [1], 1280 nM in test [2] and 21 nM in test [3].

As to `CCNC(C(=O)Nc1ccc(-c2cn[nH]c2)cc1)c1ccc(C)cc1` (stereo not drawn) [Example 11, N-(4-(1H-pyrazol-4-yl)phenyl)-2-(ethylamino)-2-(p-tolyl)acetamide], the figures for the IC50 in test [1], in test [2] and in test [3] were 69 nM, 106 nM and 4 nM, respectively.

Take `CCNC(C(=O)Nc1ccc(-c2cn[nH]c2)cc1)c1ccc(F)cc1` (stereo not drawn) [Example 12, N-(4-(1H-pyrazol-4-yl)phenyl)-2-(ethylamino)-2-(4-fluorophenyl)acetamide]: the IC50 in test [1] came to 458 nM; in test [2], 735 nM; in test [3] it was 30 nM.

As for `CCNC(C(=O)Nc1ccc(-c2cn[nH]c2)cc1)c1cccc(OC)c1` (stereo not drawn) [Example 13, N-(4-(1H-pyrazol-4-yl)phenyl)-2-(ethylamino)-2-(3-methoxyphenyl)acetamide], the IC50 in test [1] amounted to 425 nM; in test [2], 1570 nM; in test [3], 6.3 nM.

Turning to `CNC(C(=O)Nc1ccc(-c2cn[nH]c2)cc1)c1cccc(C)c1` (stereo not drawn) [Example 14, N-(4-(1H-pyrazol-4-yl)phenyl)-2-(methylamino)-2-(m-tolyl)acetamide], the IC50 in test [1] was 353 nM; in test [2] it was 496 nM; in test [3], 6.8 nM.

Regarding `CCNC(C(=O)Nc1ccc(-c2cn[nH]c2)cc1)c1cccc(F)c1` (stereo not drawn) [Example 15, N-(4-(1H-pyrazol-4-yl)phenyl)-2-(ethylamino)-2-(3-fluorophenyl)acetamide], the half-inhibitory concentration (IC50) in test [1] was 655 nM; in test [2], 1050 nM; in test [3], 24 nM.

On to `CCNC(C(=O)Nc1ccc(-c2cn[nH]c2)cc1)c1cccc(Cl)c1` (stereo not drawn) [Example 16, N-(4-(1H-pyrazol-4-yl)phenyl)-2-(3-chlorophenyl)-2-(ethylamino)acetamide], for which the results for the concentration for half-maximal inhibition (IC50) in test [1], in test [2] and in test [3] were 292 nM, 376 nM and 3.5 nM, respectively.

Regarding `CNC(C(=O)Nc1ccc(-c2cn[nH]c2)cc1)c1ccc(C)cc1` (stereo not drawn) [Example 21, N-(4-(1H-pyrazol-4-yl)phenyl)-2-(methylamino)-2-(p-tolyl)acetamide], the values for the IC50 in test [1], in test [2] and in test [3] were 47 nM, 66 nM and 3.1 nM, respectively.

For the compound `CCNC(C(=O)Nc1ccc(-c2cn[nH]c2)cc1)c1ccc(Cl)cc1` (stereo not drawn) [Example 22, N-(4-(1H-pyrazol-4-yl)phenyl)-2-(4-chlorophenyl)-2-(ethylamino)acetamide], the half-inhibitory concentration (IC50) was determined as 169 nM in test [1], 155 nM in test [2] and 8.9 nM in test [3].

Turning to `CNC(C(=O)Nc1ccc(-c2cn[nH]c2)cc1)c1ccc(OC)c(F)c1` (stereo not drawn) [Example 23, N-(4-(1H-pyrazol-4-yl)phenyl)-2-(3-fluoro-4-methoxyphenyl)-2-(methylamino)acetamide], the IC50 in test [1] is 435 nM; in test [2], 252 nM. In addition, in test [3] (@ 0.5 μM, read-out: ROCK2 % inh (0.5 μM)), the inhibition at 0.5 µM was 91%.

For the compound `COCCNC(C(=O)Nc1ccc(-c2cn[nH]c2)cc1)c1cccc(OC)c1` (stereo not drawn) [Example 25, N-(4-(1H-pyrazol-4-yl)phenyl)-2-((2-methoxyethyl)amino)-2-(3-methoxyphenyl)acetamide], the values for the IC50 in test [1], in test [2] and in test [3] were 692 nM, 663 nM and 94 nM, respectively.

Regarding `CNCCNC(C(=O)Nc1ccc(-c2cn[nH]c2)cc1)c1cccc(OC)c1` (stereo not drawn) [Example 26, N-(4-(1H-pyrazol-4-yl)phenyl)-2-(3-methoxyphenyl)-2-((2-(methylamino)ethyl)amino)acetamide], the values for the half-maximal inhibitory concentration (IC50) in test [1], in test [2] and in test [3] were 152 nM, 251 nM and 5.3 nM, respectively.

In the case of `CNC(C(=O)Nc1ccc(-c2cn[nH]c2)cc1)c1ccc2nc(C)sc2c1` (stereo not drawn) [Example 27, N-(4-(1H-pyrazol-4-yl)phenyl)-2-(methylamino)-2-(2-methylbenzo[d]thiazol-6-yl)acetamide], the IC50 in test [1] amounted to 1680 nM; in test [2] it was 699 nM; in test [3] it was 65 nM.

As for `CNC(C(=O)Nc1ccc(-c2cn[nH]c2)cc1)c1cccc(N(C)C)c1` (stereo not drawn) [Example 28, N-(4-(1H-pyrazol-4-yl)phenyl)-2-(3-(dimethylamino)phenyl)-2-(methylamino)acetamide], the half-maximal inhibitory concentration (IC50) in test [1] amounted to 947 nM; in test [2], 335 nM; in test [3], 82 nM.

`CNC(C(=O)Nc1ccc(-c2cn[nH]c2)cc1)c1ccnc(OC)c1` (stereo not drawn) [Example 29, N-(4-(1H-pyrazol-4-yl)phenyl)-2-(2-methoxypyridin-4-yl)-2-(methylamino)acetamide]: the half-maximal inhibitory concentration (IC50) amounted to 647 nM in test [1], 146 nM in test [2] and 14 nM in test [3].

Turning to `CNCCCNC(C(=O)Nc1ccc(-c2cn[nH]c2)cc1)c1cccc(OC)c1` (stereo not drawn) [Example 42, N-(4-(1H-pyrazol-4-yl)phenyl)-2-(3-methoxyphenyl)-2-((3-(methylamino)-propyl)amino)acetamide], the IC50 in test [1] was determined as 359 nM; in test [3], 6.5 nM.

For `COCC(C)(C)NC(C(=O)Nc1ccc(-c2cn[nH]c2)cc1)c1cccc(OC)c1` (stereo not drawn) [Example 43, N-(4-(1H-pyrazol-4-yl)phenyl)-2-((1-methoxy-2-methylpropan-2-yl)amino)-2-(3-methoxyphenyl)acetamide], the IC50 worked out at 1490 nM in test [1] and 47 nM in test [3].

Turning to `COCCNC(C(=O)N(C)c1ccc(-c2cn[nH]c2)cc1)c1cccc(OC)c1` (stereo not drawn) [Example 49, N-(4-(1H-pyrazol-4-yl)phenyl)-2-((2-methoxyethyl)amino)-2-(3-methoxyphenyl)-N-methylacetamide], the IC50 in test [3] was over 1000 nM.

For `CNC(C(=O)Nc1cc(F)c(-c2cn[nH]c2)cc1OCCCN(C)C)c1cccc(OC)c1` (stereo not drawn) [Example 70, N-(2-(3-(dimethylamino)propoxy)-5-fluoro-4-(1H-pyrazol-4-yl)phenyl)-2-(3-methoxyphenyl)-2-(methylamino)acetamide], the IC50 is 134 nM in test [1] and 7.7 nM in test [3].

On to `COc1cccc(C2C(=O)N(c3ccc(-c4cn[nH]c4)cc3)CCCN2CC2CC2)c1` (stereo not drawn) [Example 74, 1-(4-(1H-pyrazol-4-yl)phenyl)-4-(cyclopropylmethyl)-3-(3-methoxyphenyl)-1,4-diazepan-2-one], for which, in test [3], the IC50 was over 1000 nM.

For `COc1cccc(C2C(=O)N(c3ccc(-c4cn[nH]c4)cc3)CCCN2CCN(C)C)c1` (stereo not drawn) [Example 75, 1-(4-(1H-pyrazol-4-yl)phenyl)-4-(2-(dimethylamino)ethyl)-3-(3-methoxyphenyl)-1,4-diazepan-2-one], in test [3], the IC50 was over 1000 nM.

As for `CNCCN1CCCN(c2ccc(-c3cn[nH]c3)cc2)C(=O)C1c1cccc(OC)c1` (stereo not drawn) [Example 76, 1-(4-(1H-pyrazol-4-yl)phenyl)-3-(3-methoxyphenyl)-4-(2-(methylamino)ethyl)-1,4-diazepan-2-one], the IC50 in test [3] came to 950 nM.
